Data: publication PMC7730638, “Liposomes Composed by Membrane Lipid Extracts from Macrophage Cell Line as a Delivery of the Trypanocidal N,N’-Squaramide 17 towards Trypanosoma cruzi” (Materials, 2020)
Several values for one entry are separate records, joined by “and”; a condition that tells them apart may be missing. Equal entries are not always repeated.

Key:
[1] = test system: Epimastigotes of T. cruzi; assay: Ultrastructural changes in epimastigotes (SEM); assay type: cell-based, Trypanosoma cruzi; conditions: half of IC50 (BZ 7.91 µM, S 6.56 µM), 72 h
Experimental: Epimastigotes of T. cruzi were grown at a density of 5 × 10^5 cells/mL in RPMI culture medium containing the compounds tested at concentrations of 7.91 µM (BZ), 6.56 µM (S), and 7.93 µM (MLS) corresponding to the half of IC50 of each compound. After 72 h these cultures were centrifuged at 1600× g for 10 min. Parasites were washed in PBS and fixed for 1 h at room temperature with 2% formaldehyde and 2.5% glutaraldehyde in sodium cacodylate buffer (0.1 M, pH 7.2). Samples were then washed in 0.1 M cacodylate buffer and adhered to coverslips previously coated with poly-L-lysine (Sigma Aldrich, St. Louis, MO, USA). After adhesion, post-fixation was performed using a solution of 1% OsO4 containing 0.8% potassium ferrocyanide (K4Fe (CN)6). Then, parasites were dehydrated in increasing concentrations of acetone (30%, 50%, 70%, 90%, and 100%), subject to critical-point drying, metalized with gold, and observed in a scanning electron microscope (SEM)- (JEOL JSM-7000F, Tokyo, Japan). Sample images were visualized using a 15 kV beam voltage.

[2] = Cytotoxicity in VERO cells (resazurin); assay type: cell-based; conditions: African green monkey, VERO cells (ATCC CCL81), 50 μM to 800 μM, read-out: VERO Cell CC50
Experimental: (§1) VERO (ATCC CCL81) and RAW 264.7 cells (ATCC TIB71) were maintained in RPMI-1640 supplemented with 10% fetal bovine serum (FBS) (Sigma Aldrich, St. Louis, MO, USA) without phenol red at 37 °C and 5% CO2 [14]. […] Trypomastigotes were obtained from monolayers of infected VERO cells grown at 37 °C in an atmosphere with 5% CO2 in RPMI-1640, pH 7.4, supplemented with 10% FBS and 100 μg/mL gentamicin.
(§2) The reference drug benznidazole (BZ) was dissolved in dimethyl sulfoxide (DMSO) at 5% (w/v) at 0.002 M (stock) and the final concentration of DMSO in the experiments never exceeded 0.25% (v/v) to not affect the cell viability. The MLV, MLS, and free S were dispersed or dissolved in deionized water. The final concentration of these treatments in the experiments never exceeded 0.01% (v/v). […] Thereafter, 20 μL of resazurin—(0.39 mM, Sigma Aldrich, St. Louis, MO, USA) was added to each well, followed by incubation for 2 h, and then fluorescence was read on a microplate reader SpectraMax M5 (570 nmex/595 nmem) (Molecular Devices, Sunnyvale, CA, USA). Percentage of cell viability was calculated using the equation below, where A is the arbitrary fluorescence units (AFU) of the treatments, B is AFU culture medium with resazurin and C is AFU of the control group. […]

[3] = Cytotoxicity in RAW 264.7 macrophages (resazurin); assay type: cell-based; conditions: mouse, RAW 264.7 macrophages (ATCC TIB71), 50 μM to 800 μM, read-out: RAW 264.7 Macrophage CC50
Experimental: as §1, §2

[4] = test system: T. cruzi (strain CL-Brener) epimastigote; assay: Trypanocidal activity on epimastigotes (resazurin); assay type: cell-based; conditions: Trypanosoma cruzi; 6.25 μM to 100 μM, 72 h
Experimental: (§3) VERO (ATCC CCL81) and RAW 264.7 cells (ATCC TIB71) were maintained in RPMI-1640 supplemented with 10% fetal bovine serum (FBS) (Sigma Aldrich, St. Louis, MO, USA) without phenol red at 37 °C and 5% CO2 [14]. […] Trypomastigotes were obtained from monolayers of infected VERO cells grown at 37 °C in an atmosphere with 5% CO2 in RPMI-1640, pH 7.4, supplemented with 10% FBS and 100 μg/mL gentamicin. […] Then, 2.5 × 10^5 epimastigotes/mL were resuspended in 150 μL and added to the microplates. After 48 h, resazurin was added (20 μL/well of resazurin −3 mM), incubated for further 24 h, and fluorescence was recorded as described above. Nanostructures’ effect on amastigotes was accessed in VERO cell line grown in RPMI medium containing 10% FBS and seeded at a density of 1 × 10^4 cells/well in 24-well microplates. […] Cells were fixed and stained with Kit for Fast Staining in Haematology (Figure S2), and the number of amastigotes was determined by counting 200 cells for each experimental group distributed in random microscopic fields. The IC50 values were determined by nonlinear regression in GraphPad Prism version 7.0 (GraphPad Software, San Diego, CA, USA). Selectivity indices (SI) were calculated using the formula: SI = CC50 cytotoxicity in VERO cells/IC50 cytotoxicity in intracellular amastigotes.

[5] = test system: T. cruzi intracellular amastigotes; assay: Trypanocidal activity on intracellular amastigotes in infected VERO cells (counting of stained cells); assay type: cell-based; conditions: Trypanosoma cruzi, 6.25 μM to 100 μM, 72 h
Experimental: as §3

[6] = cited from earlier work
[7] = Entrapment efficiency (filtration, absorbance at 320 nm); assay type: physicochemical; conditions: for Entrapment efficiency: mean of triplicate, 320 nm
Experimental: The MLS nanostructures were evaluated in terms of drug entrapment efficiency (EE), established as a ratio between the encapsulation (ED) over the initial quantity of the drug (ID), according to the Equation (1) below: (1) EE %=ED mg/ID mg×100 For the determination of EE, the S-loaded nanostructures were filtrated in 100 kDa Amicon filters (Amicon® Ultra 0.5 mL centrifuge filters - Millipore, Darmstadt, Germany) at 300× g for 10 min, 4 °C [17]. Unentrapped drug (filtered content) was collected and the absorbance was measured at 320 nm using a biophotometer (Eppendorf BioPhotometer® 6131, Hamburg, Germany) (Figure S1). […] Experiments were performed in triplicates.

Trypanosoma cruzi = test system: Trypanosoma cruzi; parameters: method as in PMID 24410674; conditions: acute phase, mice, after 40 days of treatment, compared to control; cited from earlier work

Compound | Morphological alterations in epimastigotes [1] | CC50 at 72 h [2] [µM] | CC50 at 72 h [3] [µM] | IC50 [4] [µM] | IC50 [5] [µM] | Partition coefficient log P [6] | Entrapment efficiency [7] | Entrapment efficiency ([7]; listed as N, N’-Squaramide 17) [%] | Entrapment efficiency, single replicates ([7]; replicates 1-3, 320 nm, listed as N, N’-Squaramide 17) | Reduction of parasitemia (Trypanosoma cruzi) [%]
O=C(Cn1ccnc1[N+](=O)[O-])NCc1ccccc1 [BZ, benznidazole, reference compound] | prominences in the cell body and distortion in the flagellum | 284.4 ± 1.25 | 554.8 ± 4.9 | 15.8 ± 4.63 | 4.76 ± 4.45 |  |  |  |  | 
CCCCNc1c(N(C)CCCN(C)C)c(=O)c1=O [S, N, N’-Squaramide 17] | a protuberance on the cell | 736.2 ± 1.23 | 1654 ± 5.2 | 13.1 ± 5.12 | 51.2 ± 4.91 | 0.59 | 73.35% ± 2.05% | 73.35 | 75.71% and 72.07% and 72.35% | 67
